# From patent US20180353462A1, “[…] AGENTS […] FLAVONOID DERIVATIVES TARGETING KINASES, SIRTUINS AND ONCOGENIC AGENTS FOR THE TREATMENT OF CANCERS” (priority 2015, published 2018)
# Where “and” joins values, the source holds several entries; their conditions need not be identical. Equal entries are not always repeated. Where two headings read alike, the source gives them in different places.
# How the values were obtained:
# MV4-11 AML = test: In-vivo efficacy on MV4-11 AML (mice with FLT3-mutated acute myeloid leukemia); settings: mouse
# Source text: The results of the anticancer activity are presented in Tables 3 and 4 (above) and in FIG. 6, Hela cells shown at (A) and CMK cells at (B) and MV4-11 and MOLT-14 acute myeloid leukemia cells.
# Normal Bone marrow = test: Cell viability, normal bone marrow; type: cell-based; settings: Table 4
# Experimental: (§1) Bioactivity of the above-described compounds has been verified by an anticancer cell proliferation assay using the WST-1 (4-[3-(4-iodophenyl)-2-(4-nitrophenyl)-2H-5-tetrazolio]-1, 3-benzene disulfonate) colorimetric assay by Roche Life Sciences®. Anticancer activity was tested against several standard cancer cell lines including brain, breast, Kaposi sarcoma, leukemia, lung, melanoma, tenosynovial giant cell tumor, ovarian, pancreatic, colon and prostate cancer. Cells were trypsinized and plated into 96 well plates in 50 μl of media and incubated overnight. The next day approximately 18 hours after plating, 50 μl of media containing the required flavonoid-based pharmaceutical composition was added per well. Cells were plated at a density so that 72 hours post drug addition, the cells will be in log phase (500)-2000 cells/well). The compounds and extracts were solubilized in Dimethyl sulfoxide (DMSO). The cells are allowed to proliferate for 72 hours 37° C. in humidified atmosphere of 5% CO2. The experiment is terminated using WST-1 (Roche®) 10 μl per well and absorbance is read at 450 nm %690 nm. The effect of drugs on growth is assessed as percent of cell viability. The IC50 values were determined from the extract dose versus control growth curves using Graphpad Prism® software. All experiments were carried out in duplicate and the mean results determined.
# [1] = Toxicity and safety screen, in vitro profiling
# Source text: This family of AML-therapeutic targets likewise has the flavone backbone (2-phenyl-1,4-benzopyrone) chemical structure, in this case more defined as shown below (see also FIG. 1B), or any pharmaceutically acceptable salt thereof: […]
# [2] = test system: MOLM-14 acute myeloid leukemia cell line; test: WST-1 anticancer cell proliferation assay, MOLM-14; type: cell-based; settings: Table 4, read-out: Acute Myeloid Leukemia cell lines MOLM-14 IC50
# Experimental: as §1, with “Anticancer” for “Bioactivity of the above-described compounds has been verified by an anticancer cell proliferation assay using the WST-1 (4-[3-(4-iodophenyl)-2-(4-nitrophenyl)-2H-5-tetrazolio]-1, 3-benzene disulfonate) colorimetric assay by Roche Life Sciences®. Anticancer”
# [3] = test system: THP-1 acute myeloid leukemia cell line; test: WST-1 anticancer cell proliferation assay, THP-1; type: cell-based; settings: Table 4; read-out: Acute Myeloid Leukemia cell lines THP-1 IC50
# Experimental: as §1, with “Anticancer” for “Bioactivity of the above-described compounds has been verified by an anticancer cell proliferation assay using the WST-1 (4-[3-(4-iodophenyl)-2-(4-nitrophenyl)-2H-5-tetrazolio]-1, 3-benzene disulfonate) colorimetric assay by Roche Life Sciences®. Anticancer”
# MV4-11 (Leukemia) = test: WST-1 anticancer cell proliferation assay, MV4-11; type: cell-based; settings: Table 4; read-out: Acute Myeloid Leukemia cell lines MV4-11 IC50
# Experimental: as §1, with “Anticancer” for “Bioactivity of the above-described compounds has been verified by an anticancer cell proliferation assay using the WST-1 (4-[3-(4-iodophenyl)-2-(4-nitrophenyl)-2H-5-tetrazolio]-1, 3-benzene disulfonate) colorimetric assay by Roche Life Sciences®. Anticancer”
# FLT3(ITD) = molecular target: T1, FLT3(ITD) (Homo sapiens, UniProt P36888); type: binding; settings: Table 4; read-out: Acute Myeloid Leukemia Kinases FLT3-ITD IC50
# T1 construct: In general, full-length constructs were used for small, single domain kinases, and catalytic domain constructs for large multi-domain kinases; fused on or other part: T7 phage fusion or DNA tag for qPCR detection (general statement)
# T1 sequence (P36888 1-993): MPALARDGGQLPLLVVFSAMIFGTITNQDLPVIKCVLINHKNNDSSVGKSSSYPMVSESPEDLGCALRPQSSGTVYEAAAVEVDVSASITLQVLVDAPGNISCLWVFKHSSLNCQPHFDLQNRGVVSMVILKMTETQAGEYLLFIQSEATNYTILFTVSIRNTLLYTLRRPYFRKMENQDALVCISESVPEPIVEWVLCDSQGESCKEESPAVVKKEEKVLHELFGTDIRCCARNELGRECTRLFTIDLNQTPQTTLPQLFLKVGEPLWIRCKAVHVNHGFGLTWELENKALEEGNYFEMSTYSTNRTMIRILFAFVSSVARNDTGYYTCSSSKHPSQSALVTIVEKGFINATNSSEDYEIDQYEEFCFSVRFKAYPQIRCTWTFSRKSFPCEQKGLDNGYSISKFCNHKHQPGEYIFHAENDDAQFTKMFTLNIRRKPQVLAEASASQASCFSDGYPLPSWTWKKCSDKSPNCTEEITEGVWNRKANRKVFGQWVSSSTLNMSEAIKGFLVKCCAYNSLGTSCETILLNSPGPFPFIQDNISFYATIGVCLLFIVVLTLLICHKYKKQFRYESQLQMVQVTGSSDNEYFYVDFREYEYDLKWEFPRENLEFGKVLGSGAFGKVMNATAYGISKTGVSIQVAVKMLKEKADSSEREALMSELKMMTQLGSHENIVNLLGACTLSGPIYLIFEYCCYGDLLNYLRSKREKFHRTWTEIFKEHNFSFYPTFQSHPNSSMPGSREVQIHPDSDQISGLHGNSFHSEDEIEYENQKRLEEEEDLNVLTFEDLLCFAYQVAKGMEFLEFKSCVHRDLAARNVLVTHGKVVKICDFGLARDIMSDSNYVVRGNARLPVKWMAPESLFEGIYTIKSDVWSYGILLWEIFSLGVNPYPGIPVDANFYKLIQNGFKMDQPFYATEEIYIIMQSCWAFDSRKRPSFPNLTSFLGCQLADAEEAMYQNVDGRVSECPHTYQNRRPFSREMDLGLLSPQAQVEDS
# Experimental: (§2) Cannabis flavonoids and their analogs were subjected to kinase inhibition assay. The compounds were first screened at a single concentration of 10 μM in the primary assay. […] To determine the kd or IC50 values, competition binding assays were established, authenticated and executed as described previously. […] See also, Karaman et al., “A Quantitative Analysis Of Kinase Inhibitor Selectivity”, Nat. Biotechnol. […] For most assays, kinases were fused to T7 phage strains (Fabian, supra) and for the other assays, kinases were produced in HEK-293 cells after which they were tagged with DNA for quantitative PCR detection. In general, full-length constructs were used for small, single domain kinases, and catalytic domain constructs for large multi-domain kinases. […] The liganded beads were blocked with excess biotin and washed with blocking buffer (SeaBlock (Pierce), 1% BSA, 0.05% Tween 20, 1 mM DTT) to remove unbound ligand and to reduce non-specific phage binding. […] All reactions were performed in polypropylene 384-well plates in a final volume of 0.04 ml. […] The kinase concentration in the eluates was measured by quantitative PCR. An illustration of the kinase interaction process is presented below. Kd/IC50 values were determined using a standard dose response curve using the hill equation. Curves were fitted using a non-linear least square fit with the Levenberg-Marquardt algorithm.
# FLT3 = molecular target: T2, FLT3 (Homo sapiens, UniProt P36888); type: binding; settings: Table 4; read-out: Acute Myeloid Leukemia Kinases FLT3 IC50
# T2 construct: made in house
# T2 sequence (P36888 27-993): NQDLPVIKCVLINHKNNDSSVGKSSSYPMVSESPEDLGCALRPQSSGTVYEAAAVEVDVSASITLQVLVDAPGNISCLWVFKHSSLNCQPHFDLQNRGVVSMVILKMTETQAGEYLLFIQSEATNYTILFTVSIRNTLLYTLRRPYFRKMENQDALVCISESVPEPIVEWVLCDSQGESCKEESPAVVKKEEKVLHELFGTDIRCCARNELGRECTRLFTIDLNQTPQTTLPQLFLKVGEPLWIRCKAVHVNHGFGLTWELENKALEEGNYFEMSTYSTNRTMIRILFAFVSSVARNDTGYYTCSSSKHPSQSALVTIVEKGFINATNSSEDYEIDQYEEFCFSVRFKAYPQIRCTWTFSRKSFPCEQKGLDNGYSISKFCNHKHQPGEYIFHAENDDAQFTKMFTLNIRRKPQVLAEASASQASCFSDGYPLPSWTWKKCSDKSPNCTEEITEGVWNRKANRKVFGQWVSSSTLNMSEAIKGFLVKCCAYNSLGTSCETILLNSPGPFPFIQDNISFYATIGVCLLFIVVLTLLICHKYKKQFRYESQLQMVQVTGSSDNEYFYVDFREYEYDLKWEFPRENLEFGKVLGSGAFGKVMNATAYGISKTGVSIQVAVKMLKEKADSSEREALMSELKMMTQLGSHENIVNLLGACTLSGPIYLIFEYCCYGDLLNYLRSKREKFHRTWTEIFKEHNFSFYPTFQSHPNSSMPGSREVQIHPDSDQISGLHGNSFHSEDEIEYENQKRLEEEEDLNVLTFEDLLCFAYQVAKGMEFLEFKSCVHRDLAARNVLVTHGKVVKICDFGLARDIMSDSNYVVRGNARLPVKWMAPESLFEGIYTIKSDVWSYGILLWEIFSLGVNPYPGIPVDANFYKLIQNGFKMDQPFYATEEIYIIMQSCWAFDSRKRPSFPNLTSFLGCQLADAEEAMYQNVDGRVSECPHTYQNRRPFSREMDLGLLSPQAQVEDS
# Experimental: as §2
# [4] = test system: 60 cancer cell line panel; settings: US National Cancer Institute 60 cancer cell line panel, NSC:719330; cited from earlier work
smiles,measurement,setting,value
COc1cc(-c2cc(=O)c3c(O)cc(O)cc3o2)ccc1O [FBLGS-70],in-vivo efficacy on MV4-11 AML,MV4-11 AML,significant in-vivo efficacy
same,IC50,Normal Bone marrow,> 100000 nM
same,toxicity or safety screen issues,[1],no detectable toxicity or safety screen issues
same,IC50,[2],1700 nM
same,IC50,[3],> 100000 nM
same,IC50,MV4-11 (Leukemia),1250 nM
COc1ccc(-c2cc(=O)c3c(O)cc(O)cc3o2)cc1 [FBLGS-73],IC50,[2],3680 nM and 4860 nM
same,IC50,FLT3(ITD),79 nM and 46 nM
same,IC50,FLT3,127 nM and 152 nM
"CO[C@@H]1[C@H](N(C)C(=O)c2ccccc2)C[C@H]2O[C@]1(C)n1c3ccccc3c3c4c(c5c6ccccc6n2c5c31)C(=O)NC4 [Midostaurin, reference compound]",IC50,"[2]; Homo sapiens, MOLM-14",22 nM
COc1cc(-c2cc(=O)c3c(O)c(CC=C(C)C)c(O)cc3o2)ccc1O [cannflavin B],cytotoxicity against cancer cells,[4],not cytotoxic
